Results on one substance are retold here after patent US20230117205A1, “B7-H4 ANTIBODY-DRUG CONJUGATES FOR THE TREATMENT OF CANCER” (SEAGEN INC., priority 2021, published 2023).

The subject of assay [1] is WIL2S and RAJI cells transduced to express human B7-H4. The experiment in a line: CDC, Sytox Green, 10% human serum. The assay is classed as cell-based. The protocol: Antibodies have the ability to recruit complement proteins triggering complement-dependent cytotoxicity (CDC).
Using complement media (RPMI containing 10% human serum (Complement Technology, Inc. #NHS)), test antibodies and controls were titrated with a 3-fold dilution ranging from 50-0.02 μg/mL and 100 μL/well of the titrations were plated over the target cells. To measure total cell death, 2% Triton X (EMD Millipore Corp. #648463-50ML) was used as a positive control. Test plate was incubated for 2 hours at 37° C. in a humidity-controlled incubator and then Sytox Green fluorescence was read on an Envision plate reader.

In another assay the test system is HCC1569 xenograft model. Kind of assay: HCC1569 xenograft, Study HCC1569-2. Conditions: 3 mg/kg, three weekly doses, i.p. The assay is classed as in vivo, NSG mice. The protocol:
Tumor volume was measured once or twice weekly until study day 71.
Female NSG mice were implanted with 1×10^6HCC1569 tumor cells in 25% Matrigel H C (Corning #354248) subcutaneously. Once tumor volumes reached 100 mm^3, mice were randomized into treatment groups of 5 mice each and dosed with 3 mg/kg of ADC every seven days for three total doses (q7dx3). Each mouse was treated with 10 mg/kg hIVIG (Grifolds) twenty-four hours prior to receiving each ADC dose. Tumor volumes were measured 1-3 times per week, and animals were euthanized when tumor volume reached 700-1000 mm^3. Stock concentrations of ADC were diluted to a desired concentration (with 0.01% Tween20 in PBS) and injected i.p. into each treatment group.

Another assay concerns OVCAR3 xenograft model. The experiment in a line: OVCAR3 xenograft, Study OVCAR3-e314. In kind it is in vivo, SCID mice. To be noted: 3 mg/kg, three weekly doses, i.v. The protocol: Tumor volume was measured twice weekly until study day 60.
Female SCID mice were implanted with OVCAR3 tumor fragments (˜1 mm^3) subcutaneously at Charles River Discovery Services (NC). Once tumor volumes reached 150-200 mm^3, mice were dosed with 3 mg/kg of ADC every seven days for three total doses (q7dx3). Tumor volumes were measured twice weekly, and animals were euthanized when tumor volume reached 1000 mm^3. Stock concentrations of ADC were diluted to a desired concentration (with PBS) and injected i.v. into each treatment group.
Tumor growth inhibition (TGI) for each treatment group compared to the untreated group was analyzed on study day 26 as follows: % TGI=[1−(([…])/MTVuntreated)]*100, where MTV is the mean tumor volume. Statistical significance was determined using the Mann-Whitney U test (two-tailed).

A further assay has as its system TNBC PDX models. The experiment in a line: TNBC patient-derived xenograft models. In kind it is in vivo, mice. To be noted: 3 mg/kg q7dx3; for % TGI: vs untreated. The method, then:
Tumor size and body weight were measured twice weekly, and the study was terminated when tumors in the control group reached 1500 mm^3 or up to Day 28, whichever occurred first, or maximum up to Day 60.
Specifically, stock mice were bilaterally implanted with fragments from one of the Champions TumorGraft® models representing human triple negative breast cancer. After the tumors reached 1000-1500 mm^3, they were harvested, and the tumor fragments were implanted subcutaneously (s.c.) in the left flank of the female study mice. Each animal was implanted with a specific passage lot and documented. Tumor growth was monitored twice a week using digital calipers, and the tumor volume (TV) was calculated using the formula (0.52×[length×width^2]). When the TV reached approximately 150-300 mm^3, animals were matched by tumor size and assigned into control (untreated) or treatment groups (n=1-3 animals/group). Each animal in the treatment groups was dosed with 10 mg/kg hIVIG (Grifolds), followed by 3 mg/kg of ADC every seven days for three total doses (q7dx3). Tumor size and body weight were measured twice weekly, and the study was terminated when tumors in the control group reached 1500 mm^3 or up to Day 28, whichever occurred first, or maximum up to Day 60.
Inhibition of tumor growth was determined by calculating the percent TGI on the day at which animals in the control group were terminated (100%×[1−(final MTV−initial MTV of a treated group)/(final MTV−initial MTV of the control group)]). Treatment started on Day 0.
(Xenograft models place foreign cells or tissue in a host animal.)

Assay [2] relates to MDA-MB-468 xenograft tumors. Kind of assay: MDA-MB-468 xenograft, single dose, tumor volume. Conditions: single 3 mg/kg dose, i.p. In kind it is in vivo, NSG mice. The protocol:
Tumors were harvested 7 days after treatment, cut in half, and processed for RNA-seq or IHC. […]
Specifically, female NSG mice were implanted with 1×10^6 MDA-MB-468 cells in 25% Matrigel H C subcutaneously. Once tumor volumes reached ˜250-300 mm^3, mice were randomized into treatment groups of 6 mice each and treated with a single 3 mg/kg dose of ADC or mAb, or vehicle control (20 mM Histidine buffer, pH 6.0) injected intraperitoneally (i.p.). Stock concentrations of ADC were diluted to desired concentration with 20 mM Histidine buffer, pH 6.0 or and stock concentration of mAb were diluted to desired concentration with 0.01% Tween20 in PBS. Twenty-four hours prior to dosing, each animal was treated with 10 mg/kg hIVIG. One week following treatment, tumors were harvested, cut in half, and processed for RNAseq (frozen at −80° C.) or formalin-fixed and paraffin-embedded for immunohistochemical (IHC) analysis.

Assay [3] relates to MDA-MB-468 xenograft tumors. Kind of assay: Gene ontology (GO) term analysis of treated MDA-MB-468 xenograft tumors. The assay is classed as in vivo, NSG mice. The method, then:
For RNAseq, RNA was extracted from tumors and library preparation for […] sequencing was performed using PolyA selection. RNA was sequenced using the Illumina HiSeq platform 2×150 bp configuration. RNA extraction, library preparation, and sequencing were performed by GENEWIZ. Adaptors were trimmed using cutadapt version 1.16, reads were aligned to a composite (GRCh38(h38)/GRCm38(mm10)) genome using STAR version 2.5.2. Transcripts and genes were quantitated via RSEM version 1.2.31. Quantitative and statistical differences were determined between groups of samples using DESeq2 version 1.28.1. GO term and gene set enrichment analysis was performed with clusterProfiler version 3.16.1, msigdbr version 7.1.1, AnnotationDbi version 1.50.3, org.Mm.eg.db version 3.11.4, and org.Hs.eg.db version 3.11.4. […] Only GO terms with a p-value and q-value of 0.05 or less were retained. Figures were replotted using GraphPad Prism. The raw fastq files as well as the mapped BAM files are stored on the Seagen linux storage location: /fc1/jobs/research/RNASeq/.

For the substance “SGN-B7H4V: ADC of fully human IgG1 anti-B7-H4 mAb conjugated to monomethyl auristatin E (MMAE) via a protease-cleavable valine-citrulline linker (vedotin)”, the “lysis (CDC)” value in assay [1] is reported as “did not induce lysis”. Also, in the assay with HCC1569 xenograft model, the “anti-tumor activity (tumor volume)” value was “robust tumor growth delay”. Also, in the assay on OVCAR3 xenograft model, the “mean tumor volume compared to the untreated group” value is on record as “reduction in mean tumor volume”. Further, in the assay on OVCAR3 xenograft model (study day 26, compared to untreated), the “Tumor growth inhibition (TGI)” value is listed as 48%. In addition, in the assay with TNBC PDX models (TNBC), the “PDX models with tumor regression or tumor growth delay (e.g. TGI>50%)” value is listed as 9/11. In addition, the “% TGI” value with TNBC PDX models (TNBC_1, Day 13) is 111%; in the assay with TNBC PDX models (TNBC_2, Day 7), 86%; in the assay with TNBC PDX models (TNBC_3, Day 20), 71%; in the assay on TNBC PDX models (TNBC_4, Day 20), 55%; in the assay with TNBC PDX models (TNBC_5, Day 9), 106%; with TNBC PDX models (TNBC_6, Day 20), 62%. In addition, the “% TGI” value in the assay on TNBC PDX models (TNBC_7, Day 20) was 25%; with TNBC PDX models (TNBC_8, Day 17) it was 67%; with TNBC PDX models (TNBC_9, Day 22), 26%; with TNBC PDX models (TNBC_10, Day 27) it was 100%; in the assay with TNBC PDX models (TNBC_11, Day 52) it was 109%. Further, in assay [2], the tumor volume entry is given as “reduction in tumor volume”. In assay [3] (compared to B7H41001 mAb-DM1), the “human gene categories related to apoptosis/programmed cell death pathways” value was “elevated”. In addition, the “mouse immune-related GO terms” value in assay [3] (compared to B7H41001 mAb-DM1) is “increased”. Moreover, the “human gene categories related to the immune response” value in assay [3] (compared to B7H41001 mAb-DM4) is “elevated”. In addition, the “mouse immune-related gene categories” value in assay [3] (compared to B7H41001 mAb-DM4) is on record as “elevated”.
